Legend:
Androgen receptor [1] = target: T1, Androgen receptor (Homo sapiens, UniProt P10275)
T1 sequence (P10275 whole entry): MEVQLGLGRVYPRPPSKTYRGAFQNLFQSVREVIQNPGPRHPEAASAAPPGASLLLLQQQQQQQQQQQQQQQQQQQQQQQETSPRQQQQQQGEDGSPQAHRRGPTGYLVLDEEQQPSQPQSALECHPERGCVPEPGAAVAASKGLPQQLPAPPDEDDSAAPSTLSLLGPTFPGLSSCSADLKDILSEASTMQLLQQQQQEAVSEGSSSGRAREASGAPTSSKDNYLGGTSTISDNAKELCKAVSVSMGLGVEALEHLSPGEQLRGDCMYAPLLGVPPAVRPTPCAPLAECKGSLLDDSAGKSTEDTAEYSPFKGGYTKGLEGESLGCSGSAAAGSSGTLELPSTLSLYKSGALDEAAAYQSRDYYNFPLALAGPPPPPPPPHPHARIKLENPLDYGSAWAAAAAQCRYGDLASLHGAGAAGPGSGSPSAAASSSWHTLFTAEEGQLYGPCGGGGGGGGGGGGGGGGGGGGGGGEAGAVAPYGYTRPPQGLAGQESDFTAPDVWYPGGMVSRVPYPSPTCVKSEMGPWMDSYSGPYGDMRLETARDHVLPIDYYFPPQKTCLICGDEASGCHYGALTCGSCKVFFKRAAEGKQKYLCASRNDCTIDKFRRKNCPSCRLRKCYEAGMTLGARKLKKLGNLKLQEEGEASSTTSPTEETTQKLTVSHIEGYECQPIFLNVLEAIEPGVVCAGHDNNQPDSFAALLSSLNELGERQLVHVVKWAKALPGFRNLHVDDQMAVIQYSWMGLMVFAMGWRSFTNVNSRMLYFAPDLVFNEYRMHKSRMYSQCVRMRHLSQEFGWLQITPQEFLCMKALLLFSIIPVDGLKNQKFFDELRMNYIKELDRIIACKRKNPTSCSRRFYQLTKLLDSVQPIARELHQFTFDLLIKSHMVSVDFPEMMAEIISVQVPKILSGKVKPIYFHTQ
Description: In vitro antagonistic activity against androgen receptor of MDA-453 cells

Androgen receptor [2] = target: Androgen receptor (Homo sapiens, UniProt P10275); settings: lncap
Description: In vitro antagonistic activity against mutant androgen receptor of LNCap cells

Androgen receptor [3] = target: T1, Androgen receptor; experiment: Displacement of [3H]DHT from androgen receptor of human MDA-453 cells

Question: How did the IC50 (Androgen receptor [1]) turn out when `CC(C)(C)OC(=O)N1C[C@@H]2C[C@H]1[C@H]1C(=O)N(c3ccc([N+](=O)[O-])c4ccccc34)C(=O)N21` was run?
Answer: The IC50 was 1330 nM.

Question: What about the IC50 (Androgen receptor [2]) of the same compound?
Answer: The IC50 was 5860 nM.

Question: How did the IC50 (Androgen receptor [1]) turn out when `O=C1[C@H]2[C@@H]3C[C@@H](CN3C(=O)c3ccccc3)N2C(=O)N1c1ccc([N+](=O)[O-])cc1` was run?
Answer: The IC50 was greater than 5000 nM.

Question: What about the Ki (Androgen receptor [3]) of the same compound?
Answer: The Ki was 10 nM.

Question: What about the IC50 (Androgen receptor [2]) of the same compound?
Answer: The IC50 was 2540 nM.

Question: Which IC50 (Androgen receptor [1]) does the source give for `O=C1[C@@H]2[C@@H]3CC[C@@H](C3)[C@@H]2C(=O)N1c1ccc([N+](=O)[O-])c(C(F)(F)F)c1` here?
Answer: Its IC50 is 10 nM.

Question: And the Ki (Androgen receptor [3])?
Answer: The Ki was 5 nM.

Question: What about the IC50 (Androgen receptor [2]) of the same compound?
Answer: Its IC50 is greater than 5000 nM.

Question: With `O=C1[C@H]2[C@@H]3C[C@@H](CN3C(=O)Oc3ccc(F)cc3)N2C(=O)N1c1ccc([N+](=O)[O-])c2ccccc12` as the compound, how does the IC50 (Androgen receptor [1]) read?
Answer: The IC50 was 340 nM.

Question: What about the Ki (Androgen receptor [3]) of the same compound?
Answer: The Ki was 10 nM.

Question: And the IC50 (Androgen receptor [2])?
Answer: The IC50 was 30000 nM.

Question: Which IC50 (Androgen receptor [1]) does the source give for `N#Cc1ccc(N2C(=O)[C@H]3[C@@H]4C[C@@H](CN4C(=O)Oc4ccc(F)cc4)N3C2=O)cc1C(F)(F)F` here?
Answer: Its IC50 is 200 nM.

Question: And the Ki (Androgen receptor [3])?
Answer: Its Ki is 10 nM.

Question: What about the IC50 (Androgen receptor [2]) of the same compound?
Answer: The IC50 was 3920 nM.

Question: What does the source list for `CCCCc1ccc(C(=O)N2C[C@@H]3C[C@H]2[C@@H]2C(=O)N(c4ccc([N+](=O)[O-])cc4)C(=O)N32)cc1`?
Answer: IC50 (Androgen receptor [1]): 60 nM; Ki (Androgen receptor [3]): 70 nM; IC50 (Androgen receptor [2]): 4750 nM

Question: For `CC(C)(C)OC(=O)N1C[C@@H]2C[C@H]1[C@@H]1C(=O)N(c3ccc(C#N)c(C(F)(F)F)c3)C(=O)N21`, which IC50 (Androgen receptor [1]) is on record?
Answer: Its IC50 is 770 nM.

Question: And the Ki (Androgen receptor [3])?
Answer: Its Ki is 40 nM.

Question: And the IC50 (Androgen receptor [2])?
Answer: The IC50 was 4380 nM.

Question: `CC(C)(C)OC(=O)N1C[C@@H]2C[C@H]1[C@]1(C)C(=O)N(c3ccc(C#N)c(C(F)(F)F)c3)C(=O)N21` was tested. Which IC50 (Androgen receptor [1]) did it give?
Answer: Its IC50 is 780 nM.

Question: What about the IC50 (Androgen receptor [2]) of the same compound?
Answer: The IC50 was 10400 nM.

Question: `CC(C)(C)OC(=O)N1C[C@@H]2C[C@H]1[C@@H]1C(=O)N(c3ccc(C#N)cc3)C(=O)N21` was tested. Which IC50 (Androgen receptor [1]) did it give?
Answer: The IC50 was 2540 nM.

Question: What about the Ki (Androgen receptor [3]) of the same compound?
Answer: Its Ki is 240 nM.

Question: What about the IC50 (Androgen receptor [2]) of the same compound?
Answer: Its IC50 is 4970 nM.

Question: `N#Cc1ccc(N2C(=O)[C@H]3[C@@H]4C[C@@H](CN4C(=O)Oc4ccc(F)cc4)N3C2=O)c2ccccc12` was tested. Which IC50 (Androgen receptor [1]) did it give?
Answer: The IC50 was 580 nM.

Question: And the Ki (Androgen receptor [3])?
Answer: The Ki was 40 nM.

Question: And the IC50 (Androgen receptor [2])?
Answer: Its IC50 is 1870 nM.

Question: For `CC(C)(C)OC(=O)N1C[C@H]2C[C@@H]1[C@H]1C(=O)N(c3ccc(C#N)c(C(F)(F)F)c3)C(=O)N21`, which IC50 (Androgen receptor [1]) is on record?
Answer: The IC50 was greater than 5000 nM.

Question: What about the Ki (Androgen receptor [3]) of the same compound?
Answer: Its Ki is greater than 5000 nM.

Question: What about the IC50 (Androgen receptor [2]) of the same compound?
Answer: The IC50 was greater than 5000 nM.

Question: What does the source list for `N#Cc1ccc(N2C(=O)[C@H]3[C@@H]4C[C@@H](CN4C(=O)c4ccccc4)N3C2=O)cc1C(F)(F)F`?
Answer: IC50 (Androgen receptor [1]): 300 nM; Ki (Androgen receptor [3]): 120 nM; IC50 (Androgen receptor [2]): 2600 nM

Question: `O=C1[C@H]2[C@H]3CC[C@H](C3)N2C(=O)N1c1ccc([N+](=O)[O-])c2ccccc12` was tested. Which IC50 (Androgen receptor [1]) did it give?
Answer: Its IC50 is 1300 nM.

Question: What about the Ki (Androgen receptor [3]) of the same compound?
Answer: Its Ki is 1 nM.

Question: What about the IC50 (Androgen receptor [2]) of the same compound?
Answer: Its IC50 is greater than 5000 nM.

Question: Which IC50 (Androgen receptor [1]) does the source give for `CC(C)(C)OC(=O)N1C[C@H]2C[C@@H]1[C@H]1C(=O)N(c3ccc([N+](=O)[O-])cc3)C(=O)N21` here?
Answer: The IC50 was 250 nM.

Question: And the Ki (Androgen receptor [3])?
Answer: Its Ki is 230 nM.

Question: What about the IC50 (Androgen receptor [2]) of the same compound?
Answer: The IC50 was 2390 nM.

Question: How did the IC50 (Androgen receptor [1]) turn out when `CC(C)(C)OC(=O)N1C[C@@H]2C[C@H]1[C@H]1C(=O)N(c3ccc(C#N)c(C(F)(F)F)c3)C(=O)N21` was run?
Answer: The IC50 was 640 nM.

Question: And the Ki (Androgen receptor [3])?
Answer: The Ki was 180 nM.

Question: And the IC50 (Androgen receptor [2])?
Answer: Its IC50 is greater than 5000 nM.

Question: Which IC50 (Androgen receptor [1]) does the source give for `CCCCc1ccc(C(=O)N2C[C@@H]3C[C@H]2[C@@H]2C(=O)N(c4ccc(C#N)cc4)C(=O)N32)cc1` here?
Answer: The IC50 was 580 nM.

Question: And the Ki (Androgen receptor [3])?
Answer: Its Ki is 100 nM.

Question: What about the IC50 (Androgen receptor [2]) of the same compound?
Answer: Its IC50 is 6800 nM.

Question: Which results are given for `CC(C)(C)OC(=O)N1C[C@@H]2C[C@H]1[C@H]1C(=O)N(c3ccc(C#N)cc3)C(=O)N21`?
Answer: IC50 (Androgen receptor [1]): > 5000 nM; Ki (Androgen receptor [3]): 190 nM; IC50 (Androgen receptor [2]): 3510 nM

Question: Which IC50 (Androgen receptor [1]) does the source give for `CC(C)(C)OC(=O)N1C[C@@H]2C[C@H]1[C@@H]1C(=O)N(c3ccc([N+](=O)[O-])c4ccccc34)C(=O)N21` here?
Answer: Its IC50 is 3320 nM.

Question: And the Ki (Androgen receptor [3])?
Answer: Its Ki is 60 nM.

Question: What about the IC50 (Androgen receptor [2]) of the same compound?
Answer: Its IC50 is 4430 nM.
